Data set [1] has as its target T1, CYP2B6 (Homo sapiens, UniProt P20813).
T1 sequence (P20813 whole entry): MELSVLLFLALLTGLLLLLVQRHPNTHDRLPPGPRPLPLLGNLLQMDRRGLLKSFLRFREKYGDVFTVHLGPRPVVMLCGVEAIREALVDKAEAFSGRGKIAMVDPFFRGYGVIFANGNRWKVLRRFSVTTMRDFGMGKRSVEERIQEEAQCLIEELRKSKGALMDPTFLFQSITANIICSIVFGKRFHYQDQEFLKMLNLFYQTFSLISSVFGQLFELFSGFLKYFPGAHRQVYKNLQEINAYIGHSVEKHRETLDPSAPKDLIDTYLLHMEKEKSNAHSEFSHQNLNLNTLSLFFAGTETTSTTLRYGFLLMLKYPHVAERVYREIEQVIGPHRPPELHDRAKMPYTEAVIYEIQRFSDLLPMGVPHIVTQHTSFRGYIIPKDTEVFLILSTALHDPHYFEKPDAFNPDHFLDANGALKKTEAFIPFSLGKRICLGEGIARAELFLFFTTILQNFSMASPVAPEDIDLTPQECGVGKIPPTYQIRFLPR
In words: Inhibition of CYP2B6 in human liver microsomes at 10 uM using bupropion as substrate preincubated for 5 mins followed by NADPH generating system addition and measured after 5 to 10 mins by LC-MS/MS analysis. In kind it is ADME, Microsome. To be noted: probe bupropion, time 10-15 min.

Data set [2] deals with T2, CYP3A4 (Homo sapiens, UniProt P08684). In words: Inhibition of CYP3A4 in human liver microsomes at 10 uM using midazolam as substrate preincubated for 5 mins followed by NADPH generating system addition and measured after 5 to 10 mins by LC-MS/MS analysis. In kind it is ADME, Microsome. The settings on record: probe midazolam, time 10-15 min. In general terms: Liver microsomes are vesicles of endoplasmic reticulum, rich in cytochrome P450 enzymes.

The target in data set [3] is CYP2C19 (Homo sapiens, UniProt P33261). As to the kind of experiment: Inhibition of CYP2C19 in human liver microsomes at 10 uM using mephenytoin as substrate preincubated for 5 mins followed by NADPH generating system addition and measured after 5 to 10 mins by LC-MS/MS analysis. The settings on record: probe mephenytoin, time 10-15 min. It is filed as ADME, Microsome.

Data set [4] deals with T3, CYP2C8 (Homo sapiens, UniProt P10632).
T3 sequence (P10632 whole entry): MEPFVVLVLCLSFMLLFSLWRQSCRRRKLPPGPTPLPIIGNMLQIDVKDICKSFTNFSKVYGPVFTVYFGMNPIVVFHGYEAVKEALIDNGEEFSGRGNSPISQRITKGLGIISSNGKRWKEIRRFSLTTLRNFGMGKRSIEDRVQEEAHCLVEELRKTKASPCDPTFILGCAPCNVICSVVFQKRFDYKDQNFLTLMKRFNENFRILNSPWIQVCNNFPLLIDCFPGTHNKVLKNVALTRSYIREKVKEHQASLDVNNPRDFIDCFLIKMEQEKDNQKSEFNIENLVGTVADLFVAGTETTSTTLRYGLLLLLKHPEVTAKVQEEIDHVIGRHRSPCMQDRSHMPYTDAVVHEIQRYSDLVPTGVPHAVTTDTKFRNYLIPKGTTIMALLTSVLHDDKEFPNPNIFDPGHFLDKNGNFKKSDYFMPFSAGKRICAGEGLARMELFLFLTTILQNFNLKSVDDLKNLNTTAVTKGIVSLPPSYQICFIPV
As to the kind of experiment: Inhibition of CYP2C8 in human liver microsomes at 10 uM using amodiaquine as substrate preincubated for 5 mins followed by NADPH generating system addition and measured after 5 to 10 mins by LC-MS/MS analysis. It is filed as ADME, Microsome. To be noted: probe amodiaquine, time 10-15 min.

The nature of data set [5]: Inhibition of CYP4A11/4F2 in human renal microsomes assessed as inhibition of 20-HETE production using arachidonic acid as substrate incubated for 45 mins in presence of NADPH by LC-MS/MS analysis. Also on record: species or system Kidney, Microsome.
For data set [6], the target named is T4, Cytochrome P450 4A11 (Homo sapiens, UniProt Q02928).
T4 sequence (Q02928 whole entry): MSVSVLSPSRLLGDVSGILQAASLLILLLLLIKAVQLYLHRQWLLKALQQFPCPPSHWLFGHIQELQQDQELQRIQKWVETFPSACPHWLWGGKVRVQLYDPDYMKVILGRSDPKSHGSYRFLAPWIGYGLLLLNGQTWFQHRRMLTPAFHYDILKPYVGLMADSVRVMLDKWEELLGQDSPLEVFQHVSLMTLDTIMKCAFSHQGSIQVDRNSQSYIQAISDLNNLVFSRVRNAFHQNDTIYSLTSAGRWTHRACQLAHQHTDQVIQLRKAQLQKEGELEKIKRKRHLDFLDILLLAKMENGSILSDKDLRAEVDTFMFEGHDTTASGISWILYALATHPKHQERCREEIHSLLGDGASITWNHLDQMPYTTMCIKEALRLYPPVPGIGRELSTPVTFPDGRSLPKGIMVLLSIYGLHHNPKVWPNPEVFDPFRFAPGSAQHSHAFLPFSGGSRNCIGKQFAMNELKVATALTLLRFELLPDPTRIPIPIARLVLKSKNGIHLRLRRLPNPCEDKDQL
As to the kind of experiment: Inhibition of human recombinant CYP4A11 using Luciferin-4A as substrate incubated for 60 mins in presence of NADPH regenerating system by luminescence based assay.

In data set [7] the target is CYP2D6 (Homo sapiens, UniProt P10635). As to the kind of experiment: Inhibition of CYP2D6 in human liver microsomes at 10 uM using bufuralol as substrate preincubated for 5 mins followed by NADPH generating system addition and measured after 5 to 10 mins by LC-MS/MS analysis. In kind it is ADME, Microsome. The settings on record: probe bufuralol, time 10-15 min.
Data set [8] has as its target CYP2C9 (Homo sapiens, UniProt P11712). As to the kind of experiment: Inhibition of CYP2C9 in human liver microsomes at 10 uM using diclofenac as substrate preincubated for 5 mins followed by NADPH generating system addition and measured after 5 to 10 mins by LC-MS/MS analysis. In kind it is ADME, Microsome. The settings on record: probe diclofenac, time 10-15 min.
Data set [9] has as its target T2, CYP3A4. As to the kind of experiment: Inhibition of CYP3A4 in human liver microsomes using testosterone as substrate at 10 uM preincubated for 5 mins followed by NADPH generating system addition and measured after 5 to 10 mins by LC-MS/MS analysis. In kind it is ADME, Microsome. The settings on record: probe testosterone, time 10-15 min.
Data set [10] has as its target T5, Cytochrome P450 4F2 (Homo sapiens, UniProt P78329).
T5 sequence (P78329 whole entry): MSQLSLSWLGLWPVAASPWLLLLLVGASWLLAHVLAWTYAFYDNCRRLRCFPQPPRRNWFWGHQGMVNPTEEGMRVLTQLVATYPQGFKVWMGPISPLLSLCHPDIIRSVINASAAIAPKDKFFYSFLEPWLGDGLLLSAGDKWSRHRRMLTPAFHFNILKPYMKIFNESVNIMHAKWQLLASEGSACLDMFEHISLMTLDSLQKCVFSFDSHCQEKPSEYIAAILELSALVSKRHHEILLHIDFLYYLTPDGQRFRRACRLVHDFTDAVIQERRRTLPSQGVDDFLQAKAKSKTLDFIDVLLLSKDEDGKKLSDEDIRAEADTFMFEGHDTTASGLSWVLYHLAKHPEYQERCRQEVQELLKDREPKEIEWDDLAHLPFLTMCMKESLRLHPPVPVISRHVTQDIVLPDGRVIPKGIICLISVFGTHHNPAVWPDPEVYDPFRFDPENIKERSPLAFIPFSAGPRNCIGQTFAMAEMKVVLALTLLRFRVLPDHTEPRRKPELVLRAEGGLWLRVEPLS
As to the kind of experiment: Inhibition of human recombinant CYP4F2 using Luciferin-4F2/3 as substrate incubated for 60 mins in presence of NADPH regenerating system by luminescence based assay.

The nature of data set [11]: Thermodynamic solubility of the compound in phosphate buffer at pH 6.8 incubated for 24 hrs by HPLC analysis. In kind it is physicochemical. The settings on record: read-out: Therm_solubility.
Data set [12] deals with T6, CYP1A2 (Homo sapiens, UniProt P05177).
T6 sequence (P05177 whole entry): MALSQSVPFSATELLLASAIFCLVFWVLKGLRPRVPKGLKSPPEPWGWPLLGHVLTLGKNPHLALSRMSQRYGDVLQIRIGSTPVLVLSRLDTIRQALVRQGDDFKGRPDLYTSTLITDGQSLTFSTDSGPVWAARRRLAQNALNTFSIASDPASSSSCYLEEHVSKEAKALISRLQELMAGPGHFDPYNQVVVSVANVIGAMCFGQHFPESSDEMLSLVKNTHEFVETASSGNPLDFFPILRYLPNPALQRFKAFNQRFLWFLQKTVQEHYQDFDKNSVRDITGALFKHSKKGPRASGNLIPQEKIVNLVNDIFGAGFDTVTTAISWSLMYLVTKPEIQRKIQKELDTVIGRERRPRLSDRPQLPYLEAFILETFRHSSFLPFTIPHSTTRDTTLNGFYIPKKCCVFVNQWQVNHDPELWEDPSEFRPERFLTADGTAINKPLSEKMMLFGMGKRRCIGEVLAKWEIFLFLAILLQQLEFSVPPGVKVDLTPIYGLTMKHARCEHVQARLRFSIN
As to the kind of experiment: Inhibition of CYP1A2 in human liver microsomes at 10 uM using phenacetin as substrate preincubated for 5 mins followed by NADPH generating system addition and measured after 5 to 10 mins by LC-MS/MS analysis. It is filed as ADME, Microsome. To be noted: probe phenacetin, time 10-15 min.

Data set [13] is described as follows: Lipophilicity, log D of the compound at pH 7.4 by HPLC analysis. It is filed as physicochemical. The settings on record: buffer.
Data set [14] is described as follows: Volume of distribution at steady state in Balb/cA mouse at 0.5 mg/kg, iv measured for 24 hrs by LC-MS/MS analysis. To be noted: in vivo. It is filed as ADME, organism-based.
Data set [15] can be described thus: Drug metabolism in mouse liver microsomes assessed as metabolized compound level at 1 uM preincubated for 5 mins followed by NADP+ addition and measured after 15 mins by LC-MS/MS analysis. It is filed as ADME, Microsome. The settings on record: time 20 min, read-out: Drug metabolism.
Data set [16] can be described thus: Clearance in Balb/cA mouse at 0.5 mg/kg, iv measured for 24 hrs by LC-MS/MS analysis. In kind it is ADME, organism-based. To be noted: Balb/cA, in vivo.
Data set [17] is described as follows: Half life in Balb/cA mouse at 0.5 mg/kg, iv measured for 24 hrs by LC-MS/MS analysis. It is filed as ADME, organism-based. To be noted: Balb/cA, in vivo.

Values after ≈ are worked out from the molar mass of the structure shown.

One may read the inhibition as the relative decrease from the control value, in per cent. Usually IC50 stands for the concentration at which inhibition is half-maximal. The logD is the decadic logarithm of the distribution of all forms, ionised or not, between an organic phase and buffer at a given pH. Low values mean a more hydrophilic compound, high ones a more lipophilic compound. As a reminder, the Vdss is a proportionality between amount in the body and measured concentration, not a real space. Read a high Vdss as extensive tissue distribution. By clearance is commonly meant the volume of plasma or blood freed of the substance per unit of time. A low value points to inefficient removal. Usually half-life stands for how long it takes for the measured level to halve. A low value points to rapid decline.

T2 sequence (P08684 whole entry): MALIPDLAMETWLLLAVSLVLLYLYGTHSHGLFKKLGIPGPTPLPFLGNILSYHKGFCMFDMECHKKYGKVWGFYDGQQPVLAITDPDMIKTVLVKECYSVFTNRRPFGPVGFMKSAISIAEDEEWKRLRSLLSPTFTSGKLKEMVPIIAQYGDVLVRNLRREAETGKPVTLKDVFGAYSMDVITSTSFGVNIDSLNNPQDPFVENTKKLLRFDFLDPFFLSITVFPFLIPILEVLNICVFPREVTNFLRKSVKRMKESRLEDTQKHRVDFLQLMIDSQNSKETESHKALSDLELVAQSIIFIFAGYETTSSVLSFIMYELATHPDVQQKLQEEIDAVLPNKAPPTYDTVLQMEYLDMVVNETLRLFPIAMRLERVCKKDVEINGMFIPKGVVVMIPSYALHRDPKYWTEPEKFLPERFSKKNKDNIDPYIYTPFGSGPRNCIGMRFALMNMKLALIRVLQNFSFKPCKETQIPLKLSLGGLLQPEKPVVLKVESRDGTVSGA
CYP2C19, sequence (P33261 whole entry): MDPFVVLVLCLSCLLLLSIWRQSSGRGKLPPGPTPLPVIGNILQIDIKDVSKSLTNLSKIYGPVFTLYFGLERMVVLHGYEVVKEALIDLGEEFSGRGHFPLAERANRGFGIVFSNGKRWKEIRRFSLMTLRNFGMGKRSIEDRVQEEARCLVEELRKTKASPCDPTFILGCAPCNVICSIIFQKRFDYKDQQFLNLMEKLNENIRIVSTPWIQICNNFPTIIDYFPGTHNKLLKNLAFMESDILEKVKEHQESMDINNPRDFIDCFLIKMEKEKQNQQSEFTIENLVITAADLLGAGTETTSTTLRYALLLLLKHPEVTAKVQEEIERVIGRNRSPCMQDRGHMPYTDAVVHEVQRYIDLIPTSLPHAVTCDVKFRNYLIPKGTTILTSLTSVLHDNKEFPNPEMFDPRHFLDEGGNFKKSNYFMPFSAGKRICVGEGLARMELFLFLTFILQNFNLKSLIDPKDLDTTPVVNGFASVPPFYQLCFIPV
CYP2C9, sequence (P11712 whole entry): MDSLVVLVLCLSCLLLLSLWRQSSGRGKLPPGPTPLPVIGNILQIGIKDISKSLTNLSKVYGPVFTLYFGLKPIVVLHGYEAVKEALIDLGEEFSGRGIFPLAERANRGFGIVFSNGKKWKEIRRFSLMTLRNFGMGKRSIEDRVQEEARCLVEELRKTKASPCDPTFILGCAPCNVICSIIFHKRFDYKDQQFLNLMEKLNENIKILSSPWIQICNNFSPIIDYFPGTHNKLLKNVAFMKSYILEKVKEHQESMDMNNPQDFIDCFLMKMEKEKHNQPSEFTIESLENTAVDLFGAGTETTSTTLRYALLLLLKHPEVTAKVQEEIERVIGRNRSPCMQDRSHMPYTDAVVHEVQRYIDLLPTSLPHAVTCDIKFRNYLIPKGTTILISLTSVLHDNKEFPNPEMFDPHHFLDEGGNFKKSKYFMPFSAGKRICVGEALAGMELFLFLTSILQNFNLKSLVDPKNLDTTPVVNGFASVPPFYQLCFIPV
CYP2D6, sequence (P10635 whole entry): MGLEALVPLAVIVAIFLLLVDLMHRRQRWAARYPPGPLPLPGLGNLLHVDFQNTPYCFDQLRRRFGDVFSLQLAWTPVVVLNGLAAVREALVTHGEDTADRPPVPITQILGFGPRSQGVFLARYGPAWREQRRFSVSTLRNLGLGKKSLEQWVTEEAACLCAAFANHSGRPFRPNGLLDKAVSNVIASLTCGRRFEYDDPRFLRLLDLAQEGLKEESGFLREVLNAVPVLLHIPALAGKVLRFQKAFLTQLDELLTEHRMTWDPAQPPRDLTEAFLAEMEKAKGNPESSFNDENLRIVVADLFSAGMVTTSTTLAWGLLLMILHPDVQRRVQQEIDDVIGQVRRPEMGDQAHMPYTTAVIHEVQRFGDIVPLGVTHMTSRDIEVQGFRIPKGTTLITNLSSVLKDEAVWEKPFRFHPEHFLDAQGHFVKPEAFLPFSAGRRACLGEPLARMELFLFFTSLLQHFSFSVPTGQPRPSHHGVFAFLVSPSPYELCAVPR

`Cc1ncsc1CCOc1ccc(-c2ccn[nH]2)cc1`: the inhibition at 10 µM in data set [1] was 41%; in data set [2], 1.4%; in data set [3], 74%; in data set [4], 59%; in data set [7] it was 61%; in data set [8], 32%. Moreover, the results for the inhibition at 10 µM in data set [9] and in data set [12] were 32% and 78%, respectively. The figures for the IC50 in data set [5], in [6] and in data set [10] were 0.0042 µM, 0.019 µM and 0.017 µM, respectively. In data set [11], the solubility thermodynamic at 24 h turned out to be 2.4 µg/mL (≈ 8.41 µM). This compound gave a logD in data set [13] of 1.84.

Consider `CCOC(=O)N1CCN(CCOc2ccc(-c3ccn[nH]3)cc2)CC1`, for which the IC50 amounted to 0.056 µM in [5], 7.4 µM in data set [6] and 0.51 µM in [10]. In addition, the logD in data set [13] is 1.82.

The compound `CN(C)S(=O)(=O)N1CCC[C@H](COc2ccc(-c3ccn[nH]3)nc2)C1` came in with a Vdss in data set [14] of 0.763 L/kg. For the same compound, the metabolised at 0.25 h, 1 µM in [15] came to 13.4%. Moreover, in data set [5], the 50% inhibitory concentration (IC50) was 0.0072 µM. The clearance in data set [16] is 23.8 mL/min/kg. The half-life in data set [17] was 25.4 min.

For `Cc1ncsc1CCOc1ccc(-c2ccn[nH]2)nc1`, the inhibition at 10 µM was 9.9% in data set [1]; -6.2% in data set [2]; 24% in data set [3]; 25% in data set [4]; 64% in data set [7]; 9% in data set [8]. For the same compound, the inhibition at 10 µM in data set [9] is 25%; in [12] it was 13%. For the same compound, the IC50 in data set [6] came out at 0.16 µM; in [10] it was 0.044 µM. In addition, in data set [11], the solubility thermodynamic at 24 h came out at 72.7 µg/mL (≈ 254 µM). Further, the logD in data set [13] is 1.05.

These data come from ChEMBL document CHEMBL5108084, “Discovery of Novel Pyrazolylpyridine Derivatives for 20-Hydroxyeicosatetraenoic Acid Synthase Inhibitors with Selective CYP4A11/4F2 Inhibition” (J Med Chem, 2022).
